Measured values published in ChEMBL document CHEMBL2380286, “Synthesis, characterization and anti-tumor activity of novel thymoquinone analogs against pancreatic cancer” (2013).
The source made the active and inactive calls. The calls are words filed in the database; no cut-off is given here.

Key:
BXPC-3 = assay: Cytotoxicity against human BxPC3 cells at 10 uM after 72 hrs by MTT assay; type: functional, cell-based
MIA PaCa-2 [1] = assay: Chemo-sensitizing activity in human MIAPaCa2 cells assessed as potentiation of gemcitabine-induced cytotoxicity at 2.5 uM after 72 hrs by MTT assay; type: functional, cell-based
MIA PaCa-2 [2] = assay: Induction of apoptosis in human MIAPaCa2 cells at 10 uM after 72 hrs by Histone DNA ELISA; type: functional, cell-based
MIA PaCa-2 [3] = assay: Cytotoxicity against human MIAPaCa2 cells at 5 to 25 uM after 72 hrs by MTT assay; type: functional, cell-based
MIA PaCa-2 [4] = assay: Cytotoxicity against human MIAPaCa2 cells at 0.5 uM after 72 hrs by MTT assay; type: functional

Structure (SMILES) | Activity (BXPC-3) | Activity (MIA PaCa-2 [1]) | Activity (MIA PaCa-2 [2]) | Activity (MIA PaCa-2 [3]) | Activity (MIA PaCa-2 [4]) [%]
CC1=C(N)C(=O)C(C(C)C)=CC1=O | Active |  |  |  | 
CC1=C(/N=C/c2ccc(F)c(F)c2F)C(=O)C(C(C)C)=CC1=O | Active | inactive | Active |  | 
CC1=C(/N=C/c2ccc(O)c(O)c2O)C(=O)C(C(C)C)=CC1=O | Active | Active | Active | Active | 
Nc1ccn([C@@H]2O[C@H](CO)[C@@H](O)C2(F)F)c(=O)n1 [GEMCITABINE] |  |  |  |  | >50
